Data as given in article PMC12516728, “Harnessing the Estradienone Scaffold to Develop Dual GPBAR1 and LIFR Modulators for Liver Fibrosis” (Journal of Medicinal Chemistry, 2025).
Like-named read-outs stand apart in the source and are kept apart here.

How the values were obtained:
[1] = target: T1, LIF-LIFR interaction (recombinant human LIFR His-Tag / biotinylated LIF) (Homo sapiens, UniProt P42702); experiment: Cell-free AlphaScreen assay of LIF-LIFR interaction; type: binding; details: for inhibition at 10 µM: read-out: % LIFR inhibition (10 μM); for inhibition at 50 µM: read-out: % LIFR inhibition (50 μM)
T1 construct: purchased Sino Biological (LIFR); R&D Systems (LIF)
T1 sequence (P42702 45-833 limits assumed): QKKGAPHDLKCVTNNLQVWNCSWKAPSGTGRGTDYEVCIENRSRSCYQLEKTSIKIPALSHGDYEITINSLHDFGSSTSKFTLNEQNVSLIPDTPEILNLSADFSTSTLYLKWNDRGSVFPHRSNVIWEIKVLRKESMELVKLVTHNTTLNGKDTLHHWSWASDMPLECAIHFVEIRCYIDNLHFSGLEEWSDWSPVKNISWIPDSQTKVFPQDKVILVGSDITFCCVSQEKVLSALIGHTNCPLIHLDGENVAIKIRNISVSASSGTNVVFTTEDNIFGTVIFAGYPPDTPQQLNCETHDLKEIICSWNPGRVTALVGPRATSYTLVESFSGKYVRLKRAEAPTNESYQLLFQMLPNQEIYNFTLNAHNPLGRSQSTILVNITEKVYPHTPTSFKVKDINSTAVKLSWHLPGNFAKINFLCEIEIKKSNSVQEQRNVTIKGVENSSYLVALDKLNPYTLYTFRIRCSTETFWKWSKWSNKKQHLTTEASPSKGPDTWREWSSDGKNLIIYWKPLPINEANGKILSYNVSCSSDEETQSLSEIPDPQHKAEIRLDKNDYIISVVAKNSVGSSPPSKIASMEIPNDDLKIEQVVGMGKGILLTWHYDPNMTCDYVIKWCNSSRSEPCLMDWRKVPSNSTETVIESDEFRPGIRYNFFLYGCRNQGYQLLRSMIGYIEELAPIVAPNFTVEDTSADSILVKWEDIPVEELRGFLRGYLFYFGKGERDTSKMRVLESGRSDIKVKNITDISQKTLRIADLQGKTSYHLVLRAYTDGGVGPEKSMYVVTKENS
Experimental: Recombinant human LIFR (His-Tag) and LIF (biotinylated) were purchased from Sino Biologicals (Sino Biological Europe GmbH, Dusseldorf, Germany) and R&D Systems (Abingdon, UK), respectively, and both were reconstituted as required by the manufacturer. Inhibition of LIFR/LIF binding was measured by AlphaScreen, in white, low-volume, 384-well AlphaPlates (PerkinElmer, Waltham, MA, USA) using a final volume of 15 μL and an assay buffer containing 25 mM Hepes (pH 7.4), 100 mM NaCl, and 0.005% Kathon. The concentration of DMSO in each well was maintained at 5% v/v. […] Then, streptavidin donor beads were added (final concentration 20 ng/μL), and the plate was incubated in the dark for 2 h and then read in an EnSpire Alpha multimode plate reader (PerkinElmer, Waltham, MA, USA). […] Each concentration was tested in triplicate (N = 3). When present, outliers were removed, resulting in N = 2. Data, reported as averaged intensity values ± standard deviation and N, were exploited to fit the curves through GraphPad Prism 8.

GPBAR1 = target: T2, GPBAR1 (Homo sapiens, UniProt Q8TDU6); experiment: Luciferase reporter (transactivation) assay on HEK293T cells transfected with GPBAR1; type: cell-based; details: HEK-293T, relative to TLCA (10 μM) as 100%, mean ± SD, na = not active, read-out: GPBAR1 eff % (10 μM)
T2 construct: expressed in transfected cells; host or cells: HEK293T
T2 sequence (Q8TDU6 1-330): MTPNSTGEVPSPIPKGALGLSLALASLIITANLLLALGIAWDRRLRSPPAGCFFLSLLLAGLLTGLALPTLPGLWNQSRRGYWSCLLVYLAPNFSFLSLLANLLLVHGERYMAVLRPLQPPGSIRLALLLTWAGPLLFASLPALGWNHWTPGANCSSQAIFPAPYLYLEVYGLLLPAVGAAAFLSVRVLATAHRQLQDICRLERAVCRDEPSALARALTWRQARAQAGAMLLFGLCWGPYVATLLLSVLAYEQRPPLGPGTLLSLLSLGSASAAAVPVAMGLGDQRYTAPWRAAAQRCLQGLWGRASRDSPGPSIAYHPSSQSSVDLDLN
Experimental: (§1) Hek293T cells, obtained from ATCC (Manassas, VA, USA), were cultured in a D-MEM medium (Sigma-Merk Life Science S.r.l., Milan, Italy) enriched with 10% fetal bovine serum, 1% L-glutamine, and 1% penicillin/streptomycin. HEPG2 cells, also from ATCC, were grown in an MEM medium (Euroclone, reference ECB2071L) supplemented with 10% fetal bovine serum (Euroclone, reference ECS5000L), 1% L-glutamine (Euroclone, reference ECB3000D), and 1% penicillin/streptomycin (Euroclone, reference ECB3001D). All cultures were maintained in a humidified environment with 5% CO2 at 37 °C. Additionally, it was confirmed that the cells were free from Mycoplasma contamination, as verified using the Mycoplasma PCR Detection Kit (Aurogene, reference G238).
(§2) The luciferase reporter gene assay protocol takes place over four days. On the first day, HEPG2 or HEK293T cells are seeded in a 24-well plate at a density of 7.5 × 10^4 cells/well for HEPG2 or 2.5 × 10^4 cells/well for HEK293T. On the second day, cells are transiently transfected, preparing a separate mix for each receptor. To assess the phosphorylation of STAT3 signaling, HEPG2 cells were transfected with 200 ng of the reporter vector containing the Pgl4.47 response element, along with 100 ng each of LIFR, IL6ST (gp130), and pGL4.70 (Promega, Madison, WI), a vector encoding the human Renilla gene. The following day, the cells were stimulated with 10 ng/mL LIF, either alone or in combination with 2o at concentrations of 0.1, 1, 10, 25, and 50 μM, to generate a dose–response curve. For GPBAR1 agonism, HEK293T cells were transfected with 200 ng of the reporter vector pG29-CRE-LUC, 150 ng of pcmvsport-hTGR5, and 150 ng of pGL4.70, the human Renilla gene. The following day, cells were stimulated with 10 μM TLCA alone as a positive control and compound 2o at concentrations of 1 and 10 nM, as well as 0.1, 1, 2.5, 5, 10, 20, and 30 μM, to generate a dose–response curve. On the final day, cellular lysates were analyzed for luciferase and Renilla activities using the Dual-Luciferase Reporter Assay System (Promega, Madison, WI). pLuminescence was measured with a Glomax 20/20 luminometer (Promega, Madison, WI), and luciferase activities were normalized to Renilla activities.

LIFR = target: T3, LIFR (Homo sapiens, UniProt P42702); experiment: Luciferase reporter (transactivation) assay on HepG2 cells transfected with LIFR; type: cell-based; details: relative to LIF as 100%, mean ± SD
T3 construct: expressed in transfected cells; host or cells: HepG2
T3 sequence (P42702 45-1097): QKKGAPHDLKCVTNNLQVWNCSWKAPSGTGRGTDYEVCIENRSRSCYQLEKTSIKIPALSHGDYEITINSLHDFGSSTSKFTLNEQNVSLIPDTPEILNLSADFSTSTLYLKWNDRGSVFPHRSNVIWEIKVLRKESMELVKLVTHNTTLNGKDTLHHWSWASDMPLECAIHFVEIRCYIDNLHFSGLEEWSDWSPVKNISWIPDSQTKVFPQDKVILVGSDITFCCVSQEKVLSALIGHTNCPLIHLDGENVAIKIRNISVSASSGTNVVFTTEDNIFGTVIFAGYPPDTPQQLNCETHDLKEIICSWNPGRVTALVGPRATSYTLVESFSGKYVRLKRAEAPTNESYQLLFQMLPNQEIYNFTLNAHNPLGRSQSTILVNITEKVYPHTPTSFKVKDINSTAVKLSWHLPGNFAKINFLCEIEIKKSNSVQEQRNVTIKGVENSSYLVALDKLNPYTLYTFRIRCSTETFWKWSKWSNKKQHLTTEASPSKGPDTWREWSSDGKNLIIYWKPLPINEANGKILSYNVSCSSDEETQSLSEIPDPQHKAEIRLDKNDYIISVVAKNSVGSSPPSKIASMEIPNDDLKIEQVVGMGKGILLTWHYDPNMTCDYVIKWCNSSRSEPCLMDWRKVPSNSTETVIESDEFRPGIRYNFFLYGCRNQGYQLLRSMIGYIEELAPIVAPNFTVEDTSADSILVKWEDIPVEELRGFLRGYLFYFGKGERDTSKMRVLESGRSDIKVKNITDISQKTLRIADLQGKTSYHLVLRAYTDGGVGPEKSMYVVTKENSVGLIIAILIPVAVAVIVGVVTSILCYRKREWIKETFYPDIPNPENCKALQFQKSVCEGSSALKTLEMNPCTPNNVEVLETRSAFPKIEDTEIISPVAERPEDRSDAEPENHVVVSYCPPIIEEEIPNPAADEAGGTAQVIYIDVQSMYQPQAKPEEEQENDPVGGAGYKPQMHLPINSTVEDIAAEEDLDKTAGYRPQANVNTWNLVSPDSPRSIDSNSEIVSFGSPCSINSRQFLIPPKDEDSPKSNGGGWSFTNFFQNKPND
Experimental: as §1, §2

Row | Compound | IC50 [1] | inhibition at 10 µM [1] | inhibition at 50 µM [1] | Emax at 10 µM (GPBAR1) | inhibition at 10 µM (LIFR) | inhibition at 10 µM ([1]; 10 μM, LIF-LIFR signal without compound set as 100% interaction, mean ± SD) | inhibition at 50 µM ([1]; 50 μM, LIF-LIFR signal without compound set as 100% interaction, mean ± SD) | IC50 ([1]; inhibition of LIF-LIFR interaction, ± SD, read-out: IC50)
1 | C[C@]12C[C@H](c3ccc(C4CC4)cc3)C3=C4CCC(=O)C=C4CC[C@H]3[C@@H]1CCC2=O [Compound 1g, 11β-(4-Cyclopropylphenyl)-estra-4,9-dien-3,17-dione] | 9.42 ± 2.32 µM | 45.1 ± 1.9% | 62.1 ± 6.1% | 16.5 ± 1.5% | 51.1 ± 1.4% |  |  | 
2 | C[C@]12C[C@H](Cc3ccc(O)cc3)C3=C4CCC(=O)C=C4CC[C@H]3[C@@H]1CCC2=O [Compound 1e, 11β-(4-Hydroxybenzyl)estra-4,9-dien-3,17-dione] | 45.6 ± 10.5 µM | 29.3 ± 6.7% | 35.1 ± 13% | 9 ± 4% | 29.1 ± 1.4% |  |  | 
3 | COC(=O)c1cccc(-c2ccc([C@H]3C[C@]4(C)C(=O)CC[C@H]4[C@@H]4CCC5=CC(=O)CCC5=C43)cc2)c1 [Compound 2s] | 0.159 ± 0.06 µM | 63.6 ± 4.1% | 74.3 ± 14.1% | > 50% | 80.8 ± 0.9% |  |  | 
4 | CC#C[C@]1(O)CC[C@H]2[C@@H]3CCC4=CC(=O)CCC4=C3[C@@H](c3ccc(N(C)C)cc3)C[C@@]21C [Mifepristone, mifepristone, reference compound] |  |  |  |  |  | 70.5 ± 3.7% | 94.6 ± 7.3% | 0.366 ± 0.063 µM
5 | C[C@]12C[C@H](c3ccccc3)C3=C4CCC(=O)C=C4CC[C@H]3[C@@H]1CCC2=O [Compound 1c, 11β-Phenylestra-4,9-dien-3,17-dione] | 26.9 ± 3.12 µM | 34.3 ± 11.2% | 40.5 ± 4.18% | 35 ± 1.5% | 76.8 ± 6.7% |  |  | 
6 | COc1ccc(C[C@H]2C[C@]3(C)C(=O)CC[C@H]3[C@@H]3CCC4=CC(=O)CCC4=C23)cc1 [Compound 1d, 11β-(4-Methoxybenzyl)estra-4,9-dien-3,17-dione] | 43.1 ± 4.6 µM | 26.5 ± 6.2% | 41.1 ± 8% |  | 92 ± 7% |  |  | 
7 | C[C@]12C[C@H](c3ccc(I)cc3)C3=C4CCC(=O)C=C4CC[C@H]3[C@@H]1CCC2=O [Compound 1f, 11β-(4-Iodophenyl)estra-4,9-dien-3,17-dione] | 9.78 ± 1.75 µM | 45.4 ± 1.3% | 61.3 ± 7.5% |  | 89.9 ± 1.2% |  |  | 
8 | C[C@]12C[C@H](c3ccc(-c4ccccc4)cc3)C3=C4CCC(=O)C=C4CC[C@H]3[C@@H]1CCC2=O [Compound 1a] | 1.42 ± 0.2 µM | 62.4 ± 9.2% | 76.4 ± 4.1% | 44.8 ± 5.1% | 33.8 ± 3.7% |  |  | 
9 | CN(C)c1ccc([C@H]2C[C@]3(C)C(=O)CC[C@H]3[C@@H]3CCC4=CC(=O)CCC4=C32)cc1 [Compound 1b] | 0.535 ± 0.209 µM | 60 ± 14.7% | 84.3 ± 1.4% | 21.7 ± 0.3% | 104 ± 2.5% |  |  | 
10 | C[C@]12C[C@H](c3ccc(-c4cccc(C(=O)O)c4)cc3)C3=C4CCC(=O)C=C4CC[C@H]3[C@@H]1CCC2=O [Compound 2t] | 24.8 ± 2.8 µM | 22.8 ± 5.1% | 62.3 ± 7.3% | 20.4 ± 1.4% | 38.7 ± 0.6% |  |  | 
11 | C[C@]12C[C@H](c3ccc(-c4ccc(Br)nc4)cc3)C3=C4CCC(=O)C=C4CC[C@H]3[C@@H]1CCC2=O [Compound 2d] | 5.54 ± 1.39 µM | 42.1 ± 2.3% | 64.4 ± 7.5% |  | 88.8 ± 3.4% |  |  | 
